Source: patent US11773368B2, “Culture method for differentiating primordial germ cells into functionally mature oocytes” (TOKYO UNIVERSITY OF AGRICULTURE, priority 2015, dated 2023)

What was measured:
Format in all cases: cell-based, mouse
in vitro-matured eggs = experiment: In vitro fertilization and embryo transfer with in vitro-mature egg
Protocol: After 17 hours of the culture, the eggs with expanded cumulus cells were transferred into TYH medium (LSI Medience Corporation) and fertilized with epididymal sperm. In (ii) SPS group, (iv) FBS/SPS group, (v) FBS/ICI group, about 27 to 58% of eggs which processed for in vitro fertilization (IVF) were normally fertilized. Normally fertilized eggs with 2 pronuclei were cultured in KSOM medium. About 83 to 97% Embryos from the fertilized eggs developed to the 2-cell stage. The embryos developed to the 2-cell stage by the culture were transferred into the oviducts of pseudopregnant females at 0.5 dpc. Offspring were delivered by natural means or by caesarean section at 19.5 dpc. As a result, about 14 to 40% of the transferred embryos developed to offspring. The obtained offspring were raised by foster mothers. The offspring were weaned at about 4 weeks of age. […] As mentioned above, there has been no report that eggs obtained by in vitro culture in which the primordial germ cell was used as the starting material developed to offspring. […] In in vitro culture method for producing the functional egg from the primordial germ cell according to this invention, seven pups from one ovary were obtained at a maximum, and on average, 0.3 to 3.3 pups were obtained from one ovary. Pups were physically normal, and they developed normally. Male and female mice developed from eggs differentiated and matured in in vitro culture could produce the offspring after sexual maturation (Table. 2 and FIG. 12).

[1] = system: secondary follicles from in vitro cultured gonads; experiment: In vitro growth culture of secondary follicle
Protocol: The secondary follicles obtained by the in vitro organ culture of the gonads from the fetuses was processed for in vitro growth culture. […] In this example, the culture was performed with the medium supplemented with PVP which is the high-molecular-weight compound. Furthermore, the inventor found out that oocytes can develop to functional eggs by dissociating a part of the cell layers between a granulosa cell layer and a thecal cell layer which constitute a secondary follicle. Accordingly, in this example, the in vitro culture of the follicle includes a step of partial dissociation between the granulosa cell layer and the thecal cell layer. More concretely, the in vitro culture of the follicle was performed as follows.
After the culture of “1. In vitro organ culture of gonad” for 17 days mentioned above, the cultured gonads (ovaries) were transferred to L15 medium and the secondary follicles formed in the gonads were isolated from the gonads, using a fine Tungsten needle. The secondary follicles were further cultured in α-MEM supplemented with 2% (w/v) PVP, 5% FBS, and 0.1 IU/mL FSH (FOLLISTIM Injection 50; MSD). The secondary follicles were cultured on a Millicell membrane (0.4-μm pore size, 27-mm diameter; Merck Millipore) in a 35-mm culture dish (Falcon, Corning). On day 3 of the culture, the secondary follicles were transferred to 0.1% collagenase type I (Worthington Biochemicals) containing L15 medium and treated for 15 min at 37° C. Then, the theca cell layer of the secondary follicles was removed by pipetting with a pulled fine-glass capillary. Fifty to 60 secondary follicles were cultured on Transwell®-COL or Millicell membranes for another 9 to 13 days at 37° C. in the medium under 5% CO2 and 95% air. The inside and outside of the membrane insert were filled with 1 mL and 2 mL medium, respectively. Approximately half the medium in each well was replaced with fresh medium every other day.

[2] = system: ovaries cultured for 17 days; experiment: Histological analysis of ovary obtained by in vitro culture (H&E, laminin immunofluorescence)
Protocol: The ovaries cultured for 17 days in (i) FBS group or (v) FBS/10 μM ICI group and the ovaries from female mouse at 10 days after birth were processed for hematoxylin-eosin staining and laminin immunofluorescence staining.
Concretely, the ovaries were fixed for 4 hours at room temperature in 1% paraformaldehyde (PFA)/0.1% glutaraldehyde in 0.05 M phosphate buffer. For H&E staining, the ovaries were embedded in paraffin blocks after a routine protocol, and 4-μm-thick serial sections were prepared. After H&E staining, sections were observed under an IX71 microscope (Olympus). For laminin immunofluorescence staining, ovaries were cut into four to eight pieces, and the tissue sections were incubated for 3 days at 4° C. with an anti-laminin rabbit polyclonal antibody (Abcam) at a dilution of 1:100. Then the tissue sections of the ovaries were incubated for 3 days at 4° C. with an Alexa Fluor 488-conjugated goat anti-rabbit IgG at a dilution of 1:500 (Molecular Probes, Thermo Fisher Scientific Inc.). The obtained tissue sections of the ovaries were further processed for 4′,6-diamidino-2-phenylindole (DAPI; Life Technologies) staining. The tissue sections of the ovaries were observed under Zeiss LSM 710 confocal microscope.

[3] = FBS/1 μM ICI group (ICI day 5-11)
[4] = FBS/1 μM ICI group (ICI day 5-11), 19 cultured gonads
[5] = FBS/5 μM ICI group (ICI day 5-11)
[6] = FBS/5 μM ICI group (ICI day 5-11), 6 cultured gonads
[7] = FBS/10 μM ICI group (ICI day 5-11)
[8] = FBS/10 μM ICI group (ICI day 5-11), 6 cultured gonads
[9] = Vitrification FBS/1 μM ICI (vitrified-warmed gonads)
[10] = Vitrification FBS/1 μM ICI (vitrified-warmed gonads), 4 cultured gonads

C[C@]12CC[C@@H]3c4ccc(O)cc4C[C@@H](CCCCCCCCC[S+]([O-])CCCC(F)(F)C(F)(F)F)[C@H]3[C@@H]1CC[C@@H]2O (stereo partly drawn) [ICI, 7α, 17β-[9-([4,4,5,5,5-pentafluoropentyl]sulfinyl)nonyl]estra-1,3,5(10)-triene-3,17-diol]
No. of eggs fertilized normally, proportion to the number of collected follicles (in vitro-matured eggs; [3]): 26.2% | No. of embryos developed to two-cell, proportion to the number of collected follicles (in vitro-matured eggs; [3]): 24.2% | No. of pups developed from embryos, proportion to the number of collected follicles (in vitro-matured eggs; [3]): 4.8% | No. of pups from an ovary (in vitro-matured eggs; [3]): 1.6 | No. of eggs fertilized normally (in vitro-matured eggs; [4]): 168 | No. of embryos developed to two-cell (in vitro-matured eggs; [4]): 155 | No. of pups developed from embryos (in vitro-matured eggs; [4]): 31 | No. of eggs fertilized normally, proportion to the number of collected follicles (in vitro-matured eggs; [5]): 30.1% | No. of embryos developed to two-cell, proportion to the number of collected follicles (in vitro-matured eggs; [5]): 29.2% | No. of pups developed from embryos, proportion to the number of collected follicles (in vitro-matured eggs; [5]): 6.4% | No. of pups from an ovary (in vitro-matured eggs; [5]): 3.3 | No. of eggs fertilized normally (in vitro-matured eggs; [6]): 94 | No. of embryos developed to two-cell (in vitro-matured eggs; [6]): 91 | No. of pups developed from embryos (in vitro-matured eggs; [6]): 20 | No. of eggs fertilized normally, proportion to the number of collected follicles (in vitro-matured eggs; [7]): 29.3% | No. of embryos developed to two-cell, proportion to the number of collected follicles (in vitro-matured eggs; [7]): 27.3% | No. of pups developed from embryos, proportion to the number of collected follicles (in vitro-matured eggs; [7]): 3.8% | No. of pups from an ovary (in vitro-matured eggs; [7]): 3.2 | No. of eggs fertilized normally (in vitro-matured eggs; [8]): 148 | No. of embryos developed to two-cell (in vitro-matured eggs; [8]): 138 | No. of pups developed from embryos (in vitro-matured eggs; [8]): 19 | No. of eggs fertilized normally, proportion to the number of collected follicles (in vitro-matured eggs; [9]): 33.3% | No. of embryos developed to two-cell, proportion to the number of collected follicles (in vitro-matured eggs; [9]): 26.3% | No. of pups developed from embryos, proportion to the number of collected follicles (in vitro-matured eggs; [9]): 3.5% | No. of pups from an ovary (in vitro-matured eggs; [9]): 0.5 | No. of eggs fertilized normally (in vitro-matured eggs; [10]): 19 | No. of embryos developed to two-cell (in vitro-matured eggs; [10]): 15 | No. of pups developed from embryos (in vitro-matured eggs; [10]): 2 | No. of collected COCs, proportion to the number of collected follicles [1, 3]: 53.0% | No. of collected COCs [1, 4]: 340 | No. of collected COCs, proportion to the number of collected follicles [1, 5]: 57.1% | No. of collected COCs [1, 6]: 178 | No. of collected COCs, proportion to the number of collected follicles [1, 7]: 55.6% | No. of collected COCs [1, 8]: 281 | average diameter of the oocytes obtained by the in vitro culture ([1]; FBS/10 μM ICI group, n=85): 80.0 μm | No. of collected COCs, proportion to the number of collected follicles [1, 9]: 68.4% | No. of collected COCs [1, 10]: 39 | laminin localization (immunofluorescence) ([2]; (v) FBS/10 μM ICI group, day 17): laminin is circularly localized around the follicle | multioocyte follicle (multiple oocytes in one follicle) ([2]; (v) FBS/ICI group, FIG. 5b): very few
